What was measured:
Type in all cases: in vivo
[1] = tested on: upland rice (Oryza sp., var. Tebonnet, RICE); assay: Post-emerge test, crop safety; conditions: post-emerge, 14 days after application, rating scale 0-100
Method in brief: (§1)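 Compounds in acetone were track-sprayed at 187 l/ha, 15–1000 g ai/ha, onto sandy loam pots. Pre-emerge seeds were sown one day before spraying, with surface watering afterwards. Post-emerge plants were at the 2–3 leaf stage and sprayed with 0.25% v/v non-ionic surfactant. Injury was rated 0–100 at 14 days.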

[2] = tested on: field corn (Zea mays L., var. Dekalb 535, CORN); assay: Post-emerge test, crop safety; conditions: post-emerge, 14 days after application, rating scale 0-100
Method in brief: as §1

[3] = tested on: upland rice (Oryza sp., var. Tebonnet, RICE); assay: Pre-emerge test, crop safety; conditions: rated 14 days after application, 0 = no damage, 100 = complete death
Method in brief: (§2)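 Sandy loam pots; pre-emerge: sown 1 d pre-spray, surface-watered after, then bottom-watered. Post-emerge: sown 8–21 d before, 2–3 leaf stage, + 0.25% v/v NIS, bottom-watered. Acetone, 187 l/ha track spray, 15–1000 g ai/ha. 0–100 injury score, day 14.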

[4] = tested on: field corn (Zea mays L., var. Dekalb 535, CORN); assay: Pre-emerge test, crop safety; conditions: rated 14 days after application, 0 = no damage, 100 = complete death
Method in brief: as §2

[5] = tested on: redroot pigweed (Amaranthus retroflexus, AMARE); assay: Pre-emerge test, greenhouse herbicide activity screening; conditions: rated 14 days after application, 0 = no damage, 100 = complete death
Method in brief: as §2

[6] = tested on: green foxtail (Setaria viridis, SETVI); assay: as above; conditions: rated 14 days after application, 0 = no damage, 100 = complete death
Method in brief: as §1

[7] = tested on: lambsquarters (Chenopodium album, CHEAL); assay: as above; conditions: rated 14 days after application, 0 = no damage, 100 = complete death
Method in brief: as §1

[8] = tested on: barnyardgrass (Echinochloa crus-galli, ECHCG); assay: as above; conditions: rated 14 days after application, 0 = no damage, 100 = complete death
Method in brief: as §1

[9] = tested on: common ragweed (Ambrosia artemisizfolia L., AMBEL); assay: as above; conditions: rated 14 days after application, 0 = no damage, 100 = complete death
Method in brief: as §1

[10] = tested on: ivyleaf morningglory (Ipomoea hederacea, IPOHE); assay: as above; conditions: rated 14 days after application, 0 = no damage, 100 = complete death
Method in brief: as §1

[11] = tested on: johnsongrass (Sorghum halepense, SORHA); assay: as above; conditions: rated 14 days after application, 0 = no damage, 100 = complete death
Method in brief: as §1

[12] = tested on: velvetleaf (Abutilon theophrasti, ABUTH); assay: as above; conditions: rated 14 days after application, 0 = no damage, 100 = complete death
Method in brief: as §1

[13] = tested on: large crabgrass (Digitaria sanguinalis, DIGSA); assay: as above; conditions: rated 14 days after application, 0 = no damage, 100 = complete death
Method in brief: as §1

[14] = tested on: sicklepod (Cassia obtusifolia, CASOB); assay: as above; conditions: rated 14 days after application, 0 = no damage, 100 = complete death
Method in brief: as §1

[15] = tested on: lambsquarters (Chenopodium album, CHEAL); assay: Post-emerge test, greenhouse herbicide activity screening; conditions: post-emerge, 14 days after application, rating scale 0-100
Method in brief: (§3)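 Visual ratings on a 0-100 scale (0 no damage, 100 all plants dead) were taken at 14 days after treatment. Rates of 15-1000 g ai/ha in acetone, 187 l/ha, were sprayed onto soil one day after planting (pre-emerge) or onto 2-3 leaf plants with 0.25% v/v surfactant (post-emerge).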

[16] = tested on: barnyardgrass (Echinochloa crus-galli, ECHCG); assay: as above; conditions: post-emerge, 14 days after application, rating scale 0-100
Method in brief: as §3

[17] = tested on: common ragweed (Ambrosia artemisizfolia L., AMBEL); assay: as above; conditions: post-emerge, 14 days after application, rating scale 0-100
Method in brief: as §3

[18] = tested on: ivyleaf morningglory (Ipomoea hederacea, IPOHE); assay: as above; conditions: post-emerge, 14 days after application, rating scale 0-100
Method in brief: as §3

[19] = tested on: johnsongrass (Sorghum halepense, SORHA); assay: as above; conditions: post-emerge, 14 days after application, rating scale 0-100
Method in brief: as §3

[20] = tested on: velvetleaf (Abutilon theophrasti, ABUTH); assay: as above; conditions: post-emerge, 14 days after application, rating scale 0-100
Method in brief: as §3

[21] = tested on: large crabgrass (Digitaria sanguinalis, DIGSA); assay: as above; conditions: post-emerge, 14 days after application, rating scale 0-100
Method in brief: as §3

[22] = tested on: sicklepod (Cassia obtusifolia, CASOB); assay: as above; conditions: post-emerge, 14 days after application, rating scale 0-100
Method in brief: as §3

[23] = tested on: redroot pigweed (Amaranthus retroflexus, AMARE); assay: as above; conditions: post-emerge, 14 days after application, rating scale 0-100
Method in brief: as §3

COc1c(Cl)cc(F)c(-n2c(=O)cc(C(F)(F)F)n(C)c2=O)c1NC(=O)c1cccnc1 [2-98]
50: phytotoxicity rating DIGSA ([21]; 250 g ai/ha)
20: phytotoxicity rating CORN ([2]; 63 g ai/ha) | phytotoxicity rating ECHCG ([16]; 250 g ai/ha)
0: phytotoxicity rating ECHCG ([16]; 63 g ai/ha) | phytotoxicity rating SORHA ([19]; 63 g ai/ha) | phytotoxicity rating DIGSA ([21]; 63 g ai/ha)
30: Pre-emerge Herbicidal Activity, phytotoxicity rating (0-100), ECHCG ([8]; 63 g ai/ha) | Pre-emerge Herbicidal Activity, phytotoxicity rating (0-100), SORHA ([11]; 63 g ai/ha)
90: phytotoxicity rating RICE ([1]; 250 g ai/ha) | phytotoxicity rating CORN ([2]; 250 g ai/ha) | Pre-emerge phytotoxicity rating (0-100), crop damage, RICE ([3]; 250 g ai/ha) | Pre-emerge phytotoxicity rating (0-100), crop damage, CORN ([4]; 250 g ai/ha) | phytotoxicity rating CHEAL ([15]; 250 g ai/ha) | phytotoxicity rating SORHA ([19]; 250 g ai/ha)
75: phytotoxicity rating AMARE ([23]; 63 g ai/ha)
80: Pre-emerge Herbicidal Activity, phytotoxicity rating (0-100), SETVI ([6]; 63 g ai/ha) | phytotoxicity rating AMBEL ([17]; 63 g ai/ha)
60: Pre-emerge phytotoxicity rating (0-100), crop damage, RICE ([3]; 63 g ai/ha)
95: Pre-emerge Herbicidal Activity, phytotoxicity rating (0-100), SORHA ([11]; 250 g ai/ha) | Pre-emerge Herbicidal Activity, phytotoxicity rating (0-100), DIGSA ([13]; 250 g ai/ha)
40: phytotoxicity rating RICE ([1]; 63 g ai/ha) | Pre-emerge Herbicidal Activity, phytotoxicity rating (0-100), DIGSA ([13]; 63 g ai/ha)
100: Pre-emerge Herbicidal Activity, phytotoxicity rating (0-100), AMARE ([5]; 63 g ai/ha) | Pre-emerge Herbicidal Activity, phytotoxicity rating (0-100), AMARE ([5]; 250 g ai/ha) | Pre-emerge Herbicidal Activity, phytotoxicity rating (0-100), SETVI ([6]; 250 g ai/ha) | Pre-emerge Herbicidal Activity, phytotoxicity rating (0-100), CHEAL ([7]; 63 g ai/ha) | Pre-emerge Herbicidal Activity, phytotoxicity rating (0-100), CHEAL ([7]; 250 g ai/ha) | Pre-emerge Herbicidal Activity, phytotoxicity rating (0-100), ECHCG ([8]; 250 g ai/ha) | Pre-emerge Herbicidal Activity, phytotoxicity rating (0-100), AMBEL ([9]; 63 g ai/ha) | Pre-emerge Herbicidal Activity, phytotoxicity rating (0-100), AMBEL ([9]; 250 g ai/ha) | Pre-emerge Herbicidal Activity, phytotoxicity rating (0-100), IPOHE ([10]; 63 g ai/ha) | Pre-emerge Herbicidal Activity, phytotoxicity rating (0-100), IPOHE ([10]; 250 g ai/ha) | Pre-emerge Herbicidal Activity, phytotoxicity rating (0-100), ABUTH ([12]; 63 g ai/ha) | Pre-emerge Herbicidal Activity, phytotoxicity rating (0-100), ABUTH ([12]; 250 g ai/ha) | Pre-emerge Herbicidal Activity, phytotoxicity rating (0-100), CASOB ([14]; 63 g ai/ha) | Pre-emerge Herbicidal Activity, phytotoxicity rating (0-100), CASOB ([14]; 250 g ai/ha) | phytotoxicity rating AMBEL ([17]; 250 g ai/ha) | phytotoxicity rating IPOHE ([18]; 63 g ai/ha) | phytotoxicity rating IPOHE ([18]; 250 g ai/ha) | phytotoxicity rating ABUTH ([20]; 63 g ai/ha) | phytotoxicity rating ABUTH ([20]; 250 g ai/ha) | phytotoxicity rating CASOB ([22]; 63 g ai/ha) | phytotoxicity rating CASOB ([22]; 250 g ai/ha) | phytotoxicity rating AMARE ([23]; 250 g ai/ha)
70: Pre-emerge phytotoxicity rating (0-100), crop damage, CORN ([4]; 63 g ai/ha) | phytotoxicity rating CHEAL ([15]; 63 g ai/ha)
